Laboratory results reported in patent US20260297087A1, “Pyridoimidazolone Compounds, Preparation Thereof and Therapeutic Uses Thereof” (Sanofi, priority 2023, published 2026).

Assays:
[1] = target: T1, ERK5 (activated catalytic domain) (Homo sapiens, UniProt Q13164); experiment: Cell-Free Assay of ERK5 Inhibition (Time-Resolved FRET, 4EBP1 peptide phosphorylation); assay type: biochemical; conditions: ERK5 catalytic domain 4 nM, 1 mM ATP, 1 μM biotinylated 4EBP1 peptide, 30 min at 37° C.; mean where repeated; read-out: Cell-free assay (IC50 in nM)
T1 construct: purchased CarnaBiosciences 04-146
T1 sequence (Q13164 55-347 limits assumed): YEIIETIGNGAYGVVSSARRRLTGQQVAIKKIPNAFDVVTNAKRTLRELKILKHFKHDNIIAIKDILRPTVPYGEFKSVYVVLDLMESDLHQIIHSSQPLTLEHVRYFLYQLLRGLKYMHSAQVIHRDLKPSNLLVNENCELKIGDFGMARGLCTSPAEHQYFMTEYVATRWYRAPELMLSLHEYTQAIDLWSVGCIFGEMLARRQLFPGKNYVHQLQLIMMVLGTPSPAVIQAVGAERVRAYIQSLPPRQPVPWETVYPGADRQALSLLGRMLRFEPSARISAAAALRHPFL
Description: (§1) Two assays were performed to assess the ERK5 inhibitory activity of compounds of the Examples, a cell-based assay and a cell-free biochemical assay. Where repeat measurements were taken, the value reported is a mean average.
An assay was performed to measure the capacity of each compound to inhibit ERK5 enzymatic activity. Compound potency was evaluated by Time-Resolved Forster Resonance Energy Transfer (FRET system). The activated catalytic domain of protein ERK5 (CarnaBiosciences #04-146) was mixed at 4 nM with varying concentrations of compound and incubated for 30 minutes at room temperature. A mixture of 1 mM ATP and 1 μM biotinylated synthetic peptide was added (Biosyntan GmbH). This synthetic peptide represents amino acids 30-52 of Eukaryotic translation initiation factor 4E-binding protein 1 (see, e.g., the sequence under accession No. NP_004086.1) biotinylated at the N-terminus. After 30 minutes at 37° C., the peptide phosphorylation by ERK5 was measured by addition of FRET reagents consisting of 12.5 μg/ml Streptavidin-XL665, 1 nM Anti-P-4EBP1 antibody and 300 ng/ml Anti-rabbit-K antibody. Following 90 minutes at room temperature fluorescent signals were read on the Pherastar FSX multimod detector from BMG Labtech (Exc° 340 nm, Em1 620 nm, Em2 665 nm). The IC50 values represent the concentration of compound which inhibits the measurable fluorescence signal by 50% as compared to the DMSO only control.

[2] = target: T2, ERK5 (Homo sapiens, UniProt Q13164); experiment: Inhibition of Cellular ERK5 Activity (cell-based assay, MEF2 luciferase reporter in SN12C cells); conditions: renal cancer cell line SN12C, doxycycline-induced MEKSDD, mean where repeated
T2 construct: MEF2-luciferase reporter
T2 sequence (Q13164 whole entry): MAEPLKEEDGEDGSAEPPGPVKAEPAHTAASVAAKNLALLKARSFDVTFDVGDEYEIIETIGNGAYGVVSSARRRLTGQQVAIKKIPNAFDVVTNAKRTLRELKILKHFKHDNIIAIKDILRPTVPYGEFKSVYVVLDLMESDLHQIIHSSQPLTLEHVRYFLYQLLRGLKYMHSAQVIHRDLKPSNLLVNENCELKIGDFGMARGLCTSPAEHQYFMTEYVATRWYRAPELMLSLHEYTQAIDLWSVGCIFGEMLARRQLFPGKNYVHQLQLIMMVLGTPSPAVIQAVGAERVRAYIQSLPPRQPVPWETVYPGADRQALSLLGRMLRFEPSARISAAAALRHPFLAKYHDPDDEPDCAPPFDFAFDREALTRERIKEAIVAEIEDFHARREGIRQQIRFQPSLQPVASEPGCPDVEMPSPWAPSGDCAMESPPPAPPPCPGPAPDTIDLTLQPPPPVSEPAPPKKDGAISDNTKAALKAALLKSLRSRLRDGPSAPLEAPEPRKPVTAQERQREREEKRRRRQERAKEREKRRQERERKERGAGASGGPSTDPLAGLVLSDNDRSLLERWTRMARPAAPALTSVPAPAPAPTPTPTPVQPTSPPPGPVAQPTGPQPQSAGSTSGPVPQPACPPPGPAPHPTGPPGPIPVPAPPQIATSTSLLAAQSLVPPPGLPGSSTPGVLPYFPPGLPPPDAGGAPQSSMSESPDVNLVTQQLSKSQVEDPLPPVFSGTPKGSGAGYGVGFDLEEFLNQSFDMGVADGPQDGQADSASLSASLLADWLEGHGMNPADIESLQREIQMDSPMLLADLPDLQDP
Description: as §1
The renal cancer cell line SN12C was transduced by a lentivirus pGreenFire1 MEF2 EF1 Neo (ref TR030VA-N) from SBI using standard infection protocol. pGreenFire1 MEF2 EF1 Neo allows the expression of luciferase gene under the control of minimal promoter with MEF2 transcriptional response elements. Cells harboring the reporter construct were selected by geneticin treatment. The selected cells were then transposed by a piggyback based plasmid pCM4007 allowing the expression of constitutively activated MEKSDD under control of TREG3 promoter, a doxycycline regulated promoter. Transposed cells were selected by puromycin treatment. Upon doxycycline treatment (1p g/ml) MEKSDD was expressed. MEKSDD activates ERK5 that phosphorylates MEF2C protein. Activated MEF2C protein can bind to its transcriptional response elements. Then the luciferase is expressed. In a 96-well plate (96F nuncleon refl37101 thermofisher), 50,000 cells were inoculated in 142.5 μl of RPMI medium containing 10% fetal calf serum, 1% glutamine, and 1 μg/ml doxycycline. After 24 hours, compounds were added in 7.5 μl culture medium (with 2% DMSO to give a final concentration of 0.1%) in order to obtain the desired concentration (0.3-1000 nM). The luciferase activity was measured using the Kit Bright Glo Luminescent Cell Assay Cat E2610 (Promega) according to the manufacturer's protocol. Luminescence was determined using 0.2 second reading/well using a Tecan SPARK. IC50 values were calculated using XLFIT5 for Microsoft Excel using method 205. The IC50 values represent the concentration of compound which inhibits the measurable luminescence signal by 50% as compared to DMSO-treated control cells.

Compound | IC50 [1] | IC50 [2]
O=C(c1ccc(OC(F)(F)F)cc1)N1CCC(n2c(=O)[nH]c3ncc(OC4CCOC4)cc32)CC1 (racemic) [Example 56, (rac)-6-tetrahydrofuran-3-yloxy-1-[1-[4-(trifluoromethoxy)benzoyl]-4-piperidyl]-3H-imidazo[4,5-b]pyridin-2-one] | 430 nM | 96 nM
Nc1cc(OC(F)(F)F)ccc1C(=O)N1CCC(n2c(=O)[nH]c3ncc(C4CCCCC4)cc32)CC1 [Example 36, 1-[1-[2-amino-4-(trifluoromethoxy)benzoyl]-4-piperidyl]-6-cyclohexyl-3H-imidazo[4,5-b]pyridin-2-one] | 888 nM | 285 nM
O=C(c1ccc(OC(F)(F)F)cc1)N1CCC(n2c(=O)[nH]c3ncc(C4CCCC4)cc32)CC1 [Example 17, 6-Cyclopentyl-1-[1-[4-(trifluoromethoxy)benzoyl]-4-piperidyl]-3H-imidazo[4,5-b]pyridin-2-one] | 198 nM | 178 nM
Nc1cc(S(F)(F)(F)(F)F)ccc1C(=O)N1CCC(n2c(=O)[nH]c3ncc(C4CCOCC4)cc32)CC1 [Example 14, 1-[1-[2-Amino-4-(pentafluoro-λ^6-sulfanyl)benzoyl]-4-piperidyl]-6-tetrahydropyran-4-yl-3H-imidazo[4,5-b]pyridin-2-one] | 122 nM | 118 nM
O=C(c1ccc(OC(F)(F)F)cc1)N1CCC(n2c(=O)[nH]c3ncc([C@H]4CC[C@H](O)CC4)cc32)CC1 [Example 57, trans-6-(4-hydroxycyclohexyl)-1-[1-[4-(trifluoromethoxy)benzoyl]-4-piperidyl]-3H-imidazo[4,5-b]pyridine-2-one] | 180 nM | 204 nM
Nc1cc(OC(F)(F)F)ccc1C(=O)N1CCC(n2c(=O)[nH]c3ncc(C4CCCOC4)cc32)CC1 (racemic) [Example 40, (rac)-1-[1-[2-amino-4-(trifluoromethoxy)benzoyl]-4-piperidyl]-6-tetrahydropyran-3-yl-3H-imidazo[4,5-b]pyridin-2-one] | 291 nM | 168 nM
Nc1cc(OC(F)(F)F)ccc1C(=O)N1CCC(n2c(=O)[nH]c3ncc(OC4CCOC4)cc32)CC1 (racemic) [Example 55, (rac)-1-[1-[2-amino-4-(trifluoromethoxy)benzoyl]-4-piperidyl]-6-[tetrahydrofuran-3-yl]oxy-3H-imidazo[4,5-b]pyridin-2-one] | 87 nM | 83 nM
CO[C@H]1CC[C@@H](c2cnc3[nH]c(=O)n(C4CCN(C(=O)c5ccc(OC(F)(F)F)cc5)CC4)c3c2)CC1 [Example 27, cis-6-(4-methoxycyclohexyl)-1-[1-[4-(trifluoromethoxy)benzoyl]-4-piperidyl]-3H-imidazo[4,5-b]pyridin-2-one] | 1180 nM | 536 nM
Nc1cc(OC(F)(F)F)ccc1C(=O)N1CCC(n2c(=O)[nH]c3ncc(C45CCOCC4C5)cc32)CC1 (racemic) [Example 31, (rac)-1-[1-[2-amino-4-(trifluoromethoxy)benzoyl]-4-piperidyl]-6-(3-oxabicyclo[4.1.0]heptan-6-yl)-3H-imidazo[4,5-b]pyridin-2-one] | 288 nM | 170 nM

The remaining lines, values ahead:

IC50 [1] | IC50 [2] | Compound
77 nM | 72 nM | Nc1cc(OC(F)(F)F)ccc1C(=O)N1CCC(n2c(=O)[nH]c3ncc(N4CCOCC4)cc32)CC1 [Example 3, 1-[1-[2-amino-4-(trifluoromethoxy)benzoyl]-4-piperidyl]-6-N-morpholino-3H-imidazo[4,5-b]pyridin-2-one]
85 nM | 138 nM | Nc1cc(OC(F)(F)F)ccc1C(=O)N1CCC(n2c(=O)[nH]c3ncc(C4CCOC4)cc32)CC1 (racemic) [Example 16, (rac)-1-[1-[2-Amino-4-(trifluoromethoxy)benzoyl]-4-piperidyl]-6-tetrahydrofuran-3-yl-3H-imidazo[4,5-b]pyridin-2-one]
15300 nM | 310 nM | Nc1cc(OC(F)(F)F)ccc1C(=O)N1CCC(n2c(=O)[nH]c3ncc(C45CC(C(F)(F)F)(C4)C5)cc32)CC1 [Example 30, 1-[1-[2-amino-4-(trifluoromethoxy)benzoyl]-4-piperidyl]-6-[3-(trifluoromethyl)-1-bicyclo[1.1.1]pentanyl]-3H-imidazo[4,5-b]pyridin-2-one]
107 nM | 29 nM | CO[C@H]1CC[C@H](c2cnc3[nH]c(=O)n(C4CCN(C(=O)c5ccc(OC(F)(F)F)cc5N)CC4)c3c2)CC1 [Example 45, trans-1-[1-[2-amino-4-(trifluoromethoxy)benzoyl]-4-piperidyl]-6-(4-methoxycyclohexyl)-3H-imidazo[4,5-b]pyridin-2-one]
78 nM | 168 nM | CN1CCC(c2cnc3[nH]c(=O)n(C4CCN(C(=O)c5ccc(OC(F)(F)F)cc5N)CC4)c3c2)CC1 [Example 54, 1-[1-[2-amino-4-(trifluoromethoxy)benzoyl]-4-piperidyl]-6-(1-methyl-4-piperidyl)-3H-imidazo[4,5-b]pyridin-2-one]
77 nM | 150 nM | CN1CCC(Oc2cnc3[nH]c(=O)n(C4CCN(C(=O)c5ccc(OC(F)(F)F)cc5N)CC4)c3c2)C1 (racemic) [Example 6, (rac)-1-[1-[2-amino-4-(trifluoromethoxy)benzoyl]-4-piperidyl]-6-(1-methylpyrrolidin-3-yl)oxy-3H-imidazo[4,5-b]pyridin-2-one]
405 nM | 184 nM | Nc1cc(OC(F)(F)F)ccc1C(=O)N1CCC(n2c(=O)[nH]c3ncc(C4CCN(CC(F)(F)F)CC4)cc32)CC1 [Example 53, 1-[1-[2-amino-4-(trifluoromethoxy)benzoyl]-4-piperidyl]-6-[1-(2,2,2-trifluoroethyl)-4-piperidyl]-3H-imidazo[4,5-b]pyridin-2-one]
376 nM | 124 nM | Nc1cc(OC(F)(F)F)ccc1C(=O)N1CCC(n2c(=O)[nH]c3ncc(C45CC(C(F)F)(C4)C5)cc32)CC1 [Example 33, 1-[1-[2-amino-4-(trifluoromethoxy)benzoyl]-4-piperidyl]-6-[3-(difluoromethyl)-1-bicyclo[1.1.1]pentanyl]-3H-imidazo[4,5-b]pyridin-2-one]
225 nM | 1330 nM | Nc1cc(OC(F)(F)F)ccc1C(=O)N1CCC(n2c(=O)[nH]c3ncc(N4CCO[C@@H](CO)C4)cc32)CC1 [Example 13, 1-[1-[2-Amino-4-(trifluoromethoxy)benzoyl]-4-piperidyl]-6-[(2R)-2-(hydroxymethyl)morpholin-4-yl]-3H-imidazo[4,5-b]pyridin-2-one]
1080 nM | 641 nM | O=C(c1ccc(OC(F)(F)F)cc1)N1CCC(n2c(=O)[nH]c3ncc(Br)cc32)CC1 [Example 60, 6-bromo-1-[1-[4-(trifluoromethoxy)benzoyl]-4-piperidyl]-3H-imidazo[4,5-b]pyridin-2-one]
681 nM | 167 nM | Nc1cc(OC(F)(F)F)ccc1C(=O)N1CCC(n2c(=O)[nH]c3ncc(C4CC5CCC4C5)cc32)CC1 (centres unmarked) [Example 37, 1-[1-[2-amino-4-(trifluoromethoxy)benzoyl]-4-piperidyl]-6-norbornan-2-yl-3H-imidazo[4,5-b]pyridin-2-one]
643 nM | 199 nM | CO[C@H]1CC[C@@H](c2cnc3[nH]c(=O)n(C4CCN(C(=O)c5ccc(OC(F)(F)F)cc5N)CC4)c3c2)CC1 [Example 46, cis-1-[1-[2-amino-4-(trifluoromethoxy)benzoyl]-4-piperidyl]-6-(4-methoxycyclohexyl)-3H-imidazo[4,5-b]pyridin-2-one]
1140 nM | 347 nM | Nc1cc(OC(F)(F)F)ccc1C(=O)N1CCC(n2c(=O)[nH]c3ncc(C45CCC(C4)C5)cc32)CC1 [Example 32, 1-[1-[2-amino-4-(trifluoromethoxy)benzoyl]-4-piperidyl]-6-(1-bicyclo[2.1.1]hexanyl)-3H-imidazo[4,5-b]pyridin-2-one]
